For one molecule, Km results are on record in publication PMC5619143 (Future Microbiology, 2017).

Each structure is given as a SMILES string.

For this test, the system named is LdtMav2. Description: nitrocefin hydrolysis, absorbance at […] nm, Michaelis-Menten fit. The class given is biochemical, Mycobacterium avium. Conditions: pH 6.5, 25 °C.

In the case of `O=C(Cc1cccs1)N[C@@H]1C(=O)N2C(C(=O)O)=C(/C=C/c3ccc([N+](=O)[O-])cc3[N+](=O)[O-])CS[C@H]12` [nitrocefin], the Km (commonly the substrate concentration at which the rate is half of its maximum) is 75 µM.
